The target in series [1] is T1, ICE (Homo sapiens, UniProt P29466).
T1 sequence (P29466 120-297 limits assumed): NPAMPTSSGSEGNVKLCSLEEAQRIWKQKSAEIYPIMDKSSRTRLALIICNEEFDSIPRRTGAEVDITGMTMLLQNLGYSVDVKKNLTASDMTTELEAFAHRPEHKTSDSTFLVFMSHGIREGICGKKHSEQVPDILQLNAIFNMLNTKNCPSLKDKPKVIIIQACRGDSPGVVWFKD
T1 sequence (P29466 317-404 limits assumed): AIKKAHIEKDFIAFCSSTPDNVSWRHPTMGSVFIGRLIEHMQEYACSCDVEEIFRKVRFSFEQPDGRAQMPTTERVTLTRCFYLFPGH
The series can be described thus: Enzyme assay with UV-visible substrate (visible ICE assay, Succinyl-Tyr-Val-Ala-Asp-pNitroanilide). Format: biochemical. Put shortly:
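Colorimetric caspase-1 activity: 15 min enzyme-inhibitor preincubation (RT), then Suc-Tyr-Val-Ala-Asp-pNA; 405-603 nm kinetics, 20 min, 37° C. Ki from rate fitting.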

Series [2] relates to IL-1β, human peripheral blood mononuclear cells (PBMC). The series can be described thus: PBMC cell assay: IL-1β assay with human PBMC or enriched adherent mononuclear cells, LPS-stimulated. Format: cell-based. The note with it: Homo sapiens, PBMC. Put shortly: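 Mature IL-1β is measured by ELISA in supernatants after 16–18 hr at 37 °C, 5% CO2, with LPS (5 ng/ml final) and test compound (0.1% DMSO final). Cells are human PBMC (6×10^6 cells/ml) or plate-adherent mononuclear cells (2.5−3.0×10^5 per well), and the 5–6 compound concentrations span the ICE Ki.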

A short description of series [3]: Pharmacokinetic studies in the mouse (i.v. clearance, plasma levels). Format: in vivo. The note with it: CD-1, plasma, iv, mouse, 25 mg/kg. As for the experimental part:
Pharmacokinetic Studies in the Mouse
Sample Preparation and Dosing
Compounds were dissolved in sterile TRIS solution (0.02M or 0.05M) at a concentration of 2.5 mg/ml. Where necessary to ensure a complete solution, the sample was first dissolved in a minimum of dimethylacetamide (maximum of 5% of total solution volume) then diluted with the TRIS solution.
The drug solution was administered to CD-1 mice (Charles River Laboratories—26-31 g) via the tail vein at a dose volume of 10 ml/kg giving a drug dose of 25 mg/kg.
Mice were dosed in groups of 5 for each timepoint (generally from 2 minutes to 2 hours) then at the appropriate time the animals were anaesthetised with halothane and the blood collected into individual heparinized tubes by jugular severance. The blood samples were cooled to 0° C. then the plasma separated and stored at −20° C. until assayed.
Drug concentration in the plasma samples were determined by HPLC analysis with UV or MS (ESP) detection. Reverse phase chromatography was employed using a variety of bonded phases from C1 to C18 with eluents composed of aqueous buffer/acetonitrile mixtures run under isocratic conditions.
Quantitation was by external standard methods with calibration curves constructed by spiking plasma with drug solutions to give concentrations in the range of 0.5 to 50 μg/ml.
Prior to analysis the plasma samples were deproteinated by the addition of acetonitrile, methanol, trichloroacetic acid or perchloric acid followed by centrifugation at 10,000 g for 10 minutes. Sample volumes of 20 μl to 50 μl were injected for analysis.
The drug was dissolved in sterile 0.02M Tris to give a 2.5 mg/ml solution which was administered to […] of 5 male CD-1 mice via the tail vein at a dose of 25 mg/kg. At each of the following timepoints: 2, 5, 10, 15, 20, 30, 45, 60, 90 and 120 minutes a group of animals was anaesthetised and the blood collected into heparinized tubes. After separation the plasma was stored at −20° C. until assayed.
Aliquots of plasma (150 μl) were treated with 5% perchloric acid (5 μl) then mixed by vortexing and allowed to stand for 90 minutes prior to centrifugation. The resulting supernatant was separated and 20 μl was injected for HPLC analysis.
Aliquots of plasma (100 μl) were diluted with acetonitrile (100 μl) then mixed by vortexing for 20 seconds before centrifugation for 10 minutes. The resulting supernatant was separated and 20 μl was injected for HPLC analysis.

The subject of series [4] is IL-1β, human whole blood. The series is described as follows: Whole blood assay for IL-1β production. Format: cell-based. The note with it: Homo sapiens, * = values obtained upon reassay; read-out: Whole human blood IC50. Put shortly:
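IL-1β was quantified by ELISA in plasma diluted 1:200. The plasma came from EDTA-anticoagulated human whole blood incubated at 30 °C for 16-18 h with LPS (final 5.0 ng/ml) plus a saline serial dilution of compound. Controls were no-LPS, no-inhibitor and highest-vehicle.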

The target of series [5] is T1, ICE. The series can be described thus: Enzyme assay with fluorescent substrate (Acetyl-Tyr-Val-Ala-Asp-AMC); Ki and second order rate constants kinact. Format: biochemical. The method, then:
2. Enzyme Assay with Fluorescent Substrate
This assay is run essentially according to Thornberry et al. (Nature 356: 768-774 (1992)), using substrate 17 referenced in that article. The substrate is: Acetyl-Tyr-Val-Ala-Asp-amino-4-methylcoumarin (AMC). The following components are mixed:
The assay is run in a 96 well microtiter plate. Buffer and ICE are added to the wells. The components are left to incubate at 37° C. for 15 minutes in a temperature-controlled wellplate. After the 15 minute incubation, the reaction is started by adding substrate directly to the wells and the reaction is monitored @37° C. for 30 minutes by following the release of the AMC fluorophore using an excitation wavelength for 380 nm and an emission wavelength of 460 nm. A linear fit of the data for each well is performed and a rate is determined in fluorescence units per second.
For determination of enzyme inhibition constants (Ki) or the mode of inhibition (competitive, uncompetitive or noncompetitive), the rate data determined in the enzyme assays at varying inhibitor concentrations are computer-fit to standard enzyme kinetic equations (see I. H. Segel, Enzyme Kinetics, Wiley-Interscience, 1975).
The determination of second order rate constants for irreversible inhibitors was performed by fitting the fluorescence vs time data to the progress equations of Morrison. Morrison, J. F., Mol. Cell. Biophys., 2, pp. 347-368 (1985). Thornberry et al. have published a description of these methods for measurement of rate constants of irreversible inhibitors of ICE. Thornberry, N. A., et al. Biochemistry, 33, pp. 3923-3940 (1994). For compounds where no prior complex formation can be observed kinetically, the second order rate constants (kinact) are derived directly from the slope of the linear plots of kobs vs. [I]. For compounds where prior complex formation to the enzyme can be detected, the hyperbolic plots of kobs vs. [I] are fit to the equation for saturation kinetics to first generate Ki and k′. The second order rate constant kinact is then given by k′/Ki.
(§1) The selectivity of a panel of reversible inhibitors for ICE homologs is depicted in Table 1. ICE enzyme assays were performed according to Wilson et al (supra 1994) using a YVAD-AMC substrate (Thornberry et al, supra 1992). Assay of TX activity was performed using the ICE substrate under identical conditions to ICE. Assay of CPP32 was performed using a DEVD-AMC substrate (Nicholson et al., supra 1995). In general, there is low selectivity between ICE and TX for a wide range of scaffolds. None of the synthetic ICE compounds tested are effective inhibitors of CPP32.
(§2) Second-order rate constants for inactivation of ICE and ICE homologs with selected irreversible inhibitors are presented below (Table 2). The irreversible compounds studied are broad spectrum inhibitors of ICE and its homologs. Some selectivity, however, is observed with the irreversible compounds comparing inhibition of ICE and CPP32.

For series [6], the target named is T2, TX (Homo sapiens, UniProt P49662).
T2 construct: made in house; host or cells: Spodoptera frugiperda (Sf9) insect cells, recombinant baculovirus (pVL1393/TX)
T2 sequence (P49662 81-270 limits assumed): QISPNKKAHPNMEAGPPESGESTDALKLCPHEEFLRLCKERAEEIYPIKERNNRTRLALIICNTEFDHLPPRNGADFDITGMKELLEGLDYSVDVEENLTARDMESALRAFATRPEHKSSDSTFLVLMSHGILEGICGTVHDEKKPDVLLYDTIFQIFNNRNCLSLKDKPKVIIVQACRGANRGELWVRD
T2 sequence (P49662 290-377 limits assumed): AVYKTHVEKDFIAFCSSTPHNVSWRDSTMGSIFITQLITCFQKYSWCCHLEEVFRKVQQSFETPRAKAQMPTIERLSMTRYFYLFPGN
The series is described as follows: Inhibition of ICE homologs: TX. The series is classed as biochemical. The following applies: second-order rate constant for inactivation, irreversible inhibitors (Table 2).
Excerpt: Expression of TX in insect cells using a baculovirus expression system. We have subcloned Tx cDNA (Faucheu et al., supra 1995) into a modified pVL1393 transfer vector, co-transfected the resultant plasmid (pVL1393/TX) into insect cells with viral DNA and identified the recombinant baculovirus. After the generation of high titer recombinant virus stock, the medium was examined for TX activity using the visible ICE assay. […] ICE was used as a standard in the assay.
as §1, §2

The test system of series [7] is U937 cells. The series is described as follows: Fas-induced apoptosis in U937 cells. The note with it: Homo sapiens, U-937, read-out: Inhibition of apoptosis.
Experimental: Fas-Induced Apoptosis in U937 cells. Compounds were evaluated for their ability to block anti-Fas-induced apopotosis. […] We used this cell line for apoptosis studies. U937 cells were seeded in culture at 1×10^5 cells/ml and grown to ˜5×10^6 cells/ml. For apoptosis experiments, 2×10^6 cells were plated in 24-well tissue culture plates in 1 ml RPMI-1640-10% FBS and stimulated with 100 ng/ml anti-Fas antigen antibody (Medical and Biological Laboratories, Ltd.). After a 24 hr incubation at 37° C., the percentage of apoptotic cells was determined by FACS analysis using ApoTag reagents.

Molecules are shown by their SMILES.

Turning to `O=C[C@H](CCC(=O)O)NC(=O)[C@@H]1CCCN2C(=O)CC[C@H](NC(=O)c3ccccc3)C(=O)N12` [Compound 235e, [4S,(1S,9S)]-4-[9-(Benzoylamino)-6,10-dioxo-1,2,3,4,7,8,9,10-octahydro-6H-pyridazino-[1,2-a][1,2]diazepine-1-carboxamido]-5-oxopentanoic acid], the melting point was 142 °C (dec.). This compound registered a Ki in series [1] (Table 5) of 0.51 µM. Further, the IC50 in series [2] (* = values obtained upon reassay) came to 4.75 µM. This compound also showed a clearance in series [3] of 36 mL/min/kg.
Take `O=C[C@H](CC(=O)O)NC(=O)[C@@H]1CCCN2CCC[C@H](NC(=O)CCc3ccccc3)C(=O)N12` [Compound 47b, [3S(1S,9S)]3-(Octahydro-10-oxo-9-(3-phenylpropionylamino)-6H-pyridazino-[1,2-a][1,2]diazepine-1-carboxamido)-4-oxobutanoic acid]: the melting point lay within 87 to 90 °C. In series [4], the IC50 was less than 600 nM. In series [3], this compound returned a clearance of 338 mL/min/kg.
`O=C(O)C[C@H](NC(=O)CN1C(=O)[C@@H](NC(=O)CCc2ccccc2)CN(C(=O)CCc2ccccc2)c2ccccc21)C(=O)COC(=O)c1c(Cl)cccc1Cl` [Compound 108a, 2,6-Dichlorobenzoic acid 4-carboxy-2-oxo-3(S)-{2-[2-oxo-5-(3-phenylpropionyl)-3(S)-(3-phenylpropionylamino)-2,3,4,5-tetrahydrobenzo[b][1,4]diazepin-1-yl]acetylamino}butyl ester]: the “Fluorescent Assay kinact” value in series [5] (Table 6) is given as 1 × 10^5 m^−1 s^−1. The “kinact (ICE)” value in series [5] (second-order rate constant for inactivation, irreversible inhibitors (Table 2)) is on record as 100,000 M^−1 s^−1. The “kinact (TX)” value in series [6] is reported as 25,000 M^−1 s^−1. The inhibition at 20 µM in series [7] is greater than 75%.
Compound `O=C[C@H](CC(=O)O)NC(=O)[C@@H]1CCCN2CCC[C@@H](NC(=O)c3ccccc3)C(=O)N12` [Compound 246b, [3S(1S,9R)]3-(9-Benzoylamino-1,2,3,4,7,8,9,10-octahydro-10-oxo-6H-pyridazino[1,2-a][1,2]diazepine-1-carboxamido)-4-oxobutanoic acid] returned a melting point of 115 to 119 °C. In series [1] (Table 17), this compound came in with a Ki of 30 µM. The compound further returned an IC50 in series [2] (Table 17) greater than 30 µM. In series [3] (Table 17), this compound came in with a clearance of 87 mL/min/kg.

The values are drawn from patent US20120165319A1, “INHIBITORS OF INTERLEUKIN-1 BETA CONVERTING ENZYME” (VERTEX PHARMACEUTICALS INCORPORATED, priority 1995, published 2012).
